Experimental data from patent US9586056B2, “Combination therapy for treating cancer and method for treating cancer using a combination therapy” (Haniva LLC, priority 2014, dated 2017).

Key:
Type in all cases: cell-based
HIF1α = HIF1α expression under hypoxia (FIG. 14)
Text: HIF1α is a transcription factor that enhances transcription of many metastasis related genes. The expression of HIF1α usually increases under hypoxic conditions.

1205Lu C×43 (C) = assay: Number of viable cells after treatment (FIG. 11); conditions: normoxia; tirapazamine at 28.5 μM
Description: (§1) The cell lines shown in FIG. 11 include: 1205Lu plasmid (P), 1205Lu […]), 1205Lu-[…] (T). […] The cells were treated with non-thermal plasma (NTP), tirapazamine at 28.5 μM (TPZ), or the combination (NTP/TPZ). […] (T) but not for 1205Lu plasmid (P). […] Under […], all treatments (NTP, TPZ and NTP/TPZ) cause a decrease in cell number from the original number of cells (6×10^6) to approximately (3×10^6) for all melanoma cell lines. Under hypoxia, TPZ causes a decrease in cell number from the original number of cells (6×10^6) to approximately (1.2-0.6×10^5). Under hypoxia, NTP/TPZ causes a decrease from the original number of cells (6×10^6) to approximately (0.1-0.03×10^5). […] In addition, the target area of the NTP torch dramatically increases under these conditions. The ROS generated by NTP and tirapazamine induces the bystander effect and promotes the spreading of cell death signals well beyond the area of the plasma treatment. Upon treatment for 24 hours with NTP+/- tirapazamine at normal conditions (normoxia) or hypoxic conditions (hypoxia), the combination of NTP+/- tirapazamine enhances cell death under hypoxia. Furthermore, the area in which the plasma torch affects the cells increases only in the cells overexpressing the functional gap junctions.

1205Lu plasmid (P) = assay: Number of viable cells after treatment (FIG. 11); conditions: normoxia; tirapazamine at 28.5 μM
Description: as §1

1205Lu-T154A (T) = assay: Number of viable cells after treatment (FIG. 11); conditions: normoxia; tirapazamine at 28.5 μM
Description: as §1

1205Lu melanoma cells = assay: IC50 of tirapazamine for melanoma cells; conditions: Homo sapiens
1205Lu cells = assay: Photographic assessment of cell death (FIGS. 12 and 13)
Description: The broken lines shown in FIGS. 12 and 13 demarcate live cells from dead cells. The portions shown with asterisks represent the dead cells.

IC50 (1205Lu melanoma cells): 28.5 µM
Compound: Nc1n[n+]([O-])c2ccccc2[n+]1[O-] [TPZ, 3-Aminobenzo[e][1,2,4]triazine 1,4-dioxide]
expression of HIF1α compared with control (HIF1α; cell line C): decrease | expression of HIF1α compared with control (HIF1α; cell line P): increase | expression of HIF1α compared with control (HIF1α; cell line T): increase | change in viable cells (1205Lu C×43 (C)): decrease in viable cells | change in viable cells (1205Lu plasmid (P)): decrease in viable cells | change in viable cells (1205Lu-T154A (T)): decrease in viable cells | cell toxicity (FIG. 13) (1205Lu cells; hypoxia): induces cell toxicity only under hypoxic conditions | effect on cells (FIG. 12) (1205Lu cells; normal oxygen conditions): no effect
